Experiments:
normal subjects [1] = test: Oral-cecal transit time by lactulose hydrogen breath test; type: in vivo, human; conditions: 12 doses of 0.3 mg/kg every 6 hours intravenous; 12 normal subjects not receiving opioids; mean±SD; baseline mean 101.3±29.4 minutes; P<0.05
Method: (§1) With approval from the Institutional Review Board, 12 normal subjects (8 males and 4 non-pregnant females) participated in a controlled trial. The mean age was 29.3±5.8 (mean+/−standard deviation [SD]) years. […] Subjects were administered 12 consecutive doses of methylnaltrexone at a dosage rate of 0.3 mg/kg every 6 hours via intravenous injection. Methylnaltrexone was dissolved in isotonic saline for administration in this study. No other excipients were present in the administered solution. Oral-cecal transit time was measured prior to the first dose and after the last dose, following repeated dosing for 3 days, using a lactulose hydrogen breath test (Yuan, C. S., et al., Clin. Pharmacol. Ther. 1996;59:469-475). A subjective rating test for possible opioid agonist effects was also employed (Yuan, C. S., et al., Drug Alcohol Dependence 1998;52:161-165). […] The reduction in the means was statistically significant at the level of P<0.05 using the paired t-test and the Wilcoxon signed rank test. […] The absence of statistically significant changes in overall subjective opioid ratings is consistent with the lack of penetration into the central nervous system by methylnaltrexone.

normal subjects [2] = test: Adverse effects during repeated intravenous dosing; type: in vivo, human; conditions: 12 doses of 0.3 mg/kg every 6 hours intravenous
Method: as §1

[3] = white crystalline powder; cited from earlier work
[4] = system: patients with constipation-predominant IBS; conditions: 16 mg three times a week over eight weeks, cited from earlier work
patients with IBS = conditions: 0.4 mg intravenously; 50 patients; versus placebo; cited from earlier work
[5] = system: subjects with IBS of the constipation-predominant and alternating types; conditions: 1 mg twice daily for 8 weeks; 25 subjects; cited from earlier work

C[N@+]1(CC2CC2)CC[C@]23c4c5ccc(O)c4O[C@H]2C(=O)CC[C@@]3(O)[C@H]1C5 [methylnaltrexone, N-methyl-naltrexone bromide]
oral-cecal transit time after 3 days of treatment (normal subjects [1]): 82.5 ± 20.7 min
adverse effects (normal subjects [2]): No significant adverse effects
solubility in water [3]: freely soluble in water

C=C1CCC2(O)C3Cc4ccc(OC5OC(C(=O)O)C(O)C(O)C5O)c5c4C2(CCN3CC2CC2)C1O5 (stereo not shown) [nalmefene glucuronide]
gut transit time ([4]; patient reported): decreased
stool frequency ([4]; patient reported): increased
abdominal pain or bloating [4]: did not reduce
stool consistency [4]: not improved

C=CCN1CC[C@]23c4c5ccc(O)c4O[C@H]2C(=O)CC[C@@]3(O)[C@H]1C5 [naloxone]
degree of muscle spasm and relative intensity of pain (patients with IBS): not associated with any objective or subjective evidence of beneficial effect
adequate symptom relief versus placebo [5]: not statistically significantly different
subjective ratings such as severity ratings and pain scores [5]: Marginal but non-statistically significant improvements
